The results in this text go back to patent publication US20150051220A1, “COMPOUNDS FOR USE IN THERAPY” (GLUCOX BIOTECH AB, priority 2012, published 2015).

A short description of the test: Stroke model, transient middle cerebral artery occlusion (tMCAO). Type of test: in vivo. To be noted: mice, 60 min tMCAO, 3.2 mg/kg i.p. at 2 h and 12 h, sacrificed 24 h after tMCAO, vs vehicle. As to the method: FIG. 4 is a bar chart showing the infarct volume (mm3) in a mice model of stroke, where mice were treated with the inventive compound ethyl 2-(2-(4-(furan-2-carbonyl)piperazin-1-yl)acetamido)-5,6-dihydro-4H-cyclopenta[b]thiophene-3-carboxylate (“INVENTION”) or with vehicle (“CONTROL”).
The stroke disease model used in this example was mice that were subjected to transient middle cerebral artery occlusion (tMCAO) to mimic the mechanisms of ischemic stroke. Male mice weighing 20 g, was subjected to a 60 min of tMCAO as previously described (Elevers M et al., Sci. Signal 3: ra1, 2010; Bena_Erro A et al., Sci Signal 2: ra67). Sham-operated mice were used as control.
For the i.p. administrations performed in this study, 3.5 mg of ethyl 2-(2-(4-(furan-2-carbonyl)piperazin-1-yl)acetamido)-5,6-dihydro-4H-cyclopenta[b]thiophene-3-carboxylate was dissolved in 1 ml of DMSO and 5 ml of 20% Cremophor ELP in PBS then followed by additional PBS. The administered dose used in the experiment was 3.2 mg/kg and in the controls the same injection volume of vehicle was used. Administration was made at 2 h and 12 h for each mouse.
To determine infarct size and effect of Nox4 inhibitor, mice were sacrificed 24 h after tCMCAO and lesion volumes of the brain were determined according to a previously described methodology (Kleinschnitz et al, vide supra).

Consider `CCOC(=O)c1c(NC(=O)CN2CCN(C(=O)c3ccco3)CC2)sc2c1CCC2` [the inventive compound, ethyl 2-(2-(4-(furan-2-carbonyl)piperazin-1-yl)acetamido)-5,6-dihydro-4H-cyclopenta[b]thiophene-3-carboxylate], for which the “lesion volume of the brain (infarct volume)” value is on record as “significantly lower lesion volume of the brain”.
